Test results: patent publication US11911346B2, “Orally administrated therapeutic for treating mild cognitive impairment (MCI) and improving human cognitive function” (BrainCare LLC, priority 2021, dated 2024)

System: cognitive function of participants with Subjective Cognitive Decline
Assay: Cognitive Failures Questionnaire (CFQ), 8-week randomized study of one or two BCP capsules daily
Type: in vivo, human
Conditions: two capsules daily (180 mg BCP); for CFQ score: Do you bump into people? / CFQ score: Do you confuse left and right when giving people directions? / CFQ score: Do you daydream when you ought to be listening to something? / CFQ score: Do you fail to hear people speaking to you when you are doing something? / CFQ score: Do you fail to listen to people's names when you are meeting them for the first time? / CFQ score: Do you fail to notice signposts on the road? / CFQ score: Do you fail to see what you want in a supermarket (although it's there)? / CFQ score: Do you find that you drop things? / CFQ score: Do you find that you forget appointments? / CFQ score: Do you find you accidentally misplace things like placing the fruit in the cupboard and the bowl in the refrigerator? / CFQ score: Do you find you can't quite remember something although it's “on the tip of your tongue”? / CFQ score: Do you find you can't think of anything to say? / CFQ score: Do you find you forget people's names? / CFQ score: Do you find you forget what you came to the store to buy? / CFQ score: Do you find you forget whether you've turned off a light or locked the door? / CFQ score: Do you find you forget which way to turn on a road you know well but rarely use? / CFQ score: Do you find you forget why you went from one place of the house to the other? / CFQ score: Do you find yourself suddenly wondering if you used a word correctly? / CFQ score: Do you forget where you put something like a newspaper or a book? / CFQ score: Do you have trouble making up your mind? / CFQ score: Do you lose track of paying bills? / CFQ score: Do you lose your temper and regret it? / CFQ score: Do you read something and find you haven't been thinking about it and must read it again? / CFQ score: Do you say something and realize afterwards that it might be taken as an insult? / CFQ score: Do you start doing one thing at home and get distracted and do something else (unintentionally)? / Distractibility summed sub-score of CFQ / False triggering summed sub-score of CFQ / Forgetfulness summed sub-score of CFQ / Total CFQ summed sub-score: lower is better
[1] = week 4, listed as beta-caryophyllene
[2] = week 8, listed as beta-caryophyllene

C=C1CC/C=C(\C)CC[C@@H]2[C@@H]1CC2(C)C [BCP, beta-caryophyllene]
CFQ % better vs. baseline: Do you find yourself suddenly wondering if you used a word correctly? (week 4): 29% better
CFQ % better vs. baseline: Do you forget where you put something like a newspaper or a book? (week 4): 19%
CFQ % better vs. baseline: Do you have trouble making up your mind? (week 4): 21% better
CFQ % better vs. baseline: Do you lose track of paying bills? (week 4): 10% better
CFQ % better vs. baseline: Do you lose your temper and regret it? (week 4): 26% better
CFQ % better vs. baseline: Do you read something and find you haven't been thinking about it and must read it again? (week 4): 39%
CFQ % better vs. baseline: Do you start doing one thing at home and get distracted and do something else (unintentionally)? (week 4): 30%
CFQ change vs. baseline: Do you say something and realize afterwards that it might be taken as an insult? (week 4): No change
Distractibility summed sub-score of CFQ, % better vs. baseline (week 4): 20%
False triggering summed sub-score of CFQ, % better vs. baseline (week 4): 33%
Forgetfulness summed sub-score of CFQ, % better vs. baseline (week 4): 27%
Total CFQ summed sub-score, % better vs. baseline (week 4): 25%
CFQ % better vs. baseline: Do you daydream when you ought to be listening to something? [1]: 28% better
CFQ % better vs. baseline: Do you find you can't quite remember something although it's “on the tip of your tongue”? [1]: 20% better
CFQ % better vs. baseline: Do you find you forget whether you've turned off a light or locked the door? [1]: 45% better
CFQ % better vs. baseline: Do you find you forget why you went from one place of the house to the other? [1]: 39% better
CFQ % better vs. baseline: Do you forget where you put something like a newspaper or a book? [1]: 19% better
CFQ % better vs. baseline: Do you read something and find you haven't been thinking about it and must read it again? [1]: 39% better
CFQ % better vs. baseline: Do you start doing one thing at home and get distracted and do something else (unintentionally)? [1]: 30% better
Distractibility summed sub-score of CFQ, % better vs. baseline [1]: 20% better
False triggering summed sub-score of CFQ, % better vs. baseline [1]: 33% better
Forgetfulness summed sub-score of CFQ, % better vs. baseline [1]: 27% better
Total CFQ summed sub-score, % better vs. baseline [1]: 25% better
CFQ score: Do you bump into people? (week 4): 0.6 ± 0.8
CFQ score: Do you confuse left and right when giving people directions? (week 4): 0.7 ± 0.8
CFQ score: Do you daydream when you ought to be listening to something? (week 4): 1.3 ± 0.9
CFQ score: Do you fail to hear people speaking to you when you are doing something? (week 4): 1.5 ± 1.1
CFQ score: Do you fail to listen to people's names when you are meeting them for the first time? (week 4): 1.8 ± 1.2
CFQ score: Do you fail to notice signposts on the road? (week 4): 0.7 ± 0.7
CFQ score: Do you fail to see what you want in a supermarket (although it's there)? (week 4): 1.1 ± 1.0
CFQ score: Do you find that you drop things? (week 4): 1.1 ± 0.7
CFQ score: Do you find that you forget appointments? (week 4): 0.7 ± 0.8
CFQ score: Do you find you accidentally misplace things like placing the fruit in the cupboard and the bowl in the refrigerator? (week 4): 0.7 ± 0.9
CFQ score: Do you find you can't quite remember something although it's “on the tip of your tongue”? (week 4): 2.0 ± 1.0^
CFQ score: Do you find you can't think of anything to say? (week 4): 0.8 ± 0.8
CFQ score: Do you find you forget people's names? (week 4): 2.0 ± 0.9
CFQ score: Do you find you forget what you came to the store to buy? (week 4): 1.0 ± 0.9
CFQ score: Do you find you forget whether you've turned off a light or locked the door? (week 4): 1.1 ± 0.9
CFQ score: Do you find you forget which way to turn on a road you know well but rarely use? (week 4): 0.6 ± 0.8
CFQ score: Do you find you forget why you went from one place of the house to the other? (week 4): 1.4 ± 0.7^
CFQ score: Do you find yourself suddenly wondering if you used a word correctly? (week 4): 1.0 ± 1.1
CFQ score: Do you forget where you put something like a newspaper or a book? (week 4): 1.7 ± 0.9^
CFQ score: Do you have trouble making up your mind? (week 4): 1.5 ± 1.1
CFQ score: Do you lose track of paying bills? (week 4): 0.9 ± 1.0
CFQ score: Do you lose your temper and regret it? (week 4): 1.1 ± 0.8
CFQ score: Do you read something and find you haven't been thinking about it and must read it again? (week 4): 1.5 ± 0.9
CFQ score: Do you say something and realize afterwards that it might be taken as an insult? (week 4): 1.4 ± 0.9
CFQ score: Do you start doing one thing at home and get distracted and do something else (unintentionally)? (week 4): 1.9 ± 0.8
Distractibility summed sub-score of CFQ (week 4): 10 ± 5
False triggering summed sub-score of CFQ (week 4): 7 ± 4^
Forgetfulness summed sub-score of CFQ (week 4): 12 ± 5^
Total CFQ summed sub-score (week 4): 29 ± 14
CFQ % better vs. baseline: Do you bump into people? (week 8): 29% better
CFQ % better vs. baseline: Do you confuse left and right when giving people directions? (week 8): 22% better
CFQ % better vs. baseline: Do you daydream when you ought to be listening to something? (week 8): 33%
CFQ % better vs. baseline: Do you fail to hear people speaking to you when you are doing something? (week 8): 23% better
CFQ % better vs. baseline: Do you fail to listen to people's names when you are meeting them for the first time? (week 8): 17% better
CFQ % better vs. baseline: Do you fail to notice signposts on the road? (week 8): 20% better
CFQ % better vs. baseline: Do you fail to see what you want in a supermarket (although it's there)? (week 8): 23% better
CFQ % better vs. baseline: Do you find that you drop things? (week 8): 33% better
CFQ % better vs. baseline: Do you find that you forget appointments? (week 8): 50% better
CFQ % better vs. baseline: Do you find you accidentally misplace things like placing the fruit in the cupboard and the bowl in the refrigerator? (week 8): 63%
CFQ % better vs. baseline: Do you find you can't quite remember something although it's “on the tip of your tongue”? (week 8): 12% better
CFQ % better vs. baseline: Do you find you can't think of anything to say? (week 8): 27% better
CFQ % better vs. baseline: Do you find you forget people's names? (week 8): 20% better
CFQ % better vs. baseline: Do you find you forget what you came to the store to buy? (week 8): 27% better
CFQ % better vs. baseline: Do you find you forget whether you've turned off a light or locked the door? (week 8): 40%
CFQ % better vs. baseline: Do you find you forget which way to turn on a road you know well but rarely use? (week 8): 44% better
CFQ % better vs. baseline: Do you find you forget why you went from one place of the house to the other? (week 8): 39%
CFQ % better vs. baseline: Do you find yourself suddenly wondering if you used a word correctly? (week 8): 43% better
CFQ % better vs. baseline: Do you forget where you put something like a newspaper or a book? (week 8): 29%
CFQ % better vs. baseline: Do you have trouble making up your mind? (week 8): 26% better
CFQ % better vs. baseline: Do you lose track of paying bills? (week 8): 30% better
CFQ % better vs. baseline: Do you lose your temper and regret it? (week 8): 33% better
CFQ % better vs. baseline: Do you read something and find you haven't been thinking about it and must read it again? (week 8): 39%
CFQ % better vs. baseline: Do you say something and realize afterwards that it might be taken as an insult? (week 8): 14% better
CFQ % better vs. baseline: Do you start doing one thing at home and get distracted and do something else (unintentionally)? (week 8): 30%
Distractibility summed sub-score of CFQ, % better vs. baseline (week 8): 29%
False triggering summed sub-score of CFQ, % better vs. baseline (week 8): 36%
Forgetfulness summed sub-score of CFQ, % better vs. baseline (week 8): 27%
Total CFQ summed sub-score, % better vs. baseline (week 8): 30%
CFQ % better vs. baseline: Do you daydream when you ought to be listening to something? [2]: 33% better
CFQ % better vs. baseline: Do you find you accidentally misplace things like placing the fruit in the cupboard and the bowl in the refrigerator? [2]: 63% better
CFQ % better vs. baseline: Do you find you forget whether you've turned off a light or locked the door? [2]: 40% better
CFQ % better vs. baseline: Do you find you forget why you went from one place of the house to the other? [2]: 39% better
CFQ % better vs. baseline: Do you forget where you put something like a newspaper or a book? [2]: 29% better
CFQ % better vs. baseline: Do you read something and find you haven't been thinking about it and must read it again? [2]: 39% better
CFQ % better vs. baseline: Do you start doing one thing at home and get distracted and do something else (unintentionally)? [2]: 30% better
Distractibility summed sub-score of CFQ, % better vs. baseline [2]: 29% better
False triggering summed sub-score of CFQ, % better vs. baseline [2]: 36% better
Forgetfulness summed sub-score of CFQ, % better vs. baseline [2]: 27% better
Total CFQ summed sub-score, % better vs. baseline [2]: 30% better
CFQ score: Do you bump into people? (week 8): 0.5 ± 0.6
CFQ score: Do you confuse left and right when giving people directions? (week 8): 0.7 ± 0.8
CFQ score: Do you daydream when you ought to be listening to something? (week 8): 1.2 ± 0.9
CFQ score: Do you fail to hear people speaking to you when you are doing something? (week 8): 1.3 ± 1.1
CFQ score: Do you fail to listen to people's names when you are meeting them for the first time? (week 8): 1.9 ± 1.1
CFQ score: Do you fail to notice signposts on the road? (week 8): 0.8 ± 0.7
CFQ score: Do you fail to see what you want in a supermarket (although it's there)? (week 8): 1.0 ± 0.8
CFQ score: Do you find that you drop things? (week 8): 1.0 ± 0.7
CFQ score: Do you find that you forget appointments? (week 8): 0.5 ± 0.5
CFQ score: Do you find you accidentally misplace things like placing the fruit in the cupboard and the bowl in the refrigerator? (week 8): 0.3 ± 0.5
CFQ score: Do you find you can't quite remember something although it's “on the tip of your tongue”? (week 8): 2.2 ± 0.8
CFQ score: Do you find you can't think of anything to say? (week 8): 0.8 ± 0.7
CFQ score: Do you find you forget people's names? (week 8): 2.0 ± 1.0
CFQ score: Do you find you forget what you came to the store to buy? (week 8): 1.1 ± 0.9
CFQ score: Do you find you forget whether you've turned off a light or locked the door? (week 8): 1.2 ± 0.7
CFQ score: Do you find you forget which way to turn on a road you know well but rarely use? (week 8): 0.5 ± 0.6
CFQ score: Do you find you forget why you went from one place of the house to the other? (week 8): 1.4 ± 0.8^
CFQ score: Do you find yourself suddenly wondering if you used a word correctly? (week 8): 0.8 ± 0.9
CFQ score: Do you forget where you put something like a newspaper or a book? (week 8): 1.5 ± 0.9^
CFQ score: Do you have trouble making up your mind? (week 8): 1.4 ± 0.9
CFQ score: Do you lose track of paying bills? (week 8): 0.7 ± 0.9
CFQ score: Do you lose your temper and regret it? (week 8): 1.0 ± 0.7
CFQ score: Do you read something and find you haven't been thinking about it and must read it again? (week 8): 1.4 ± 0.8
CFQ score: Do you say something and realize afterwards that it might be taken as an insult? (week 8): 1.2 ± 0.7
CFQ score: Do you start doing one thing at home and get distracted and do something else (unintentionally)? (week 8): 1.9 ± 0.7
Distractibility summed sub-score of CFQ (week 8): 9 ± 4
False triggering summed sub-score of CFQ (week 8): 7 ± 4^
Forgetfulness summed sub-score of CFQ (week 8): 12 ± 5^
Total CFQ summed sub-score (week 8): 27 ± 11
